The target of one test is T1, human VPAC2 (Homo sapiens, UniProt P41587).
T1 construct: expressed in transfected cells
T1 sequence (P41587 24-438): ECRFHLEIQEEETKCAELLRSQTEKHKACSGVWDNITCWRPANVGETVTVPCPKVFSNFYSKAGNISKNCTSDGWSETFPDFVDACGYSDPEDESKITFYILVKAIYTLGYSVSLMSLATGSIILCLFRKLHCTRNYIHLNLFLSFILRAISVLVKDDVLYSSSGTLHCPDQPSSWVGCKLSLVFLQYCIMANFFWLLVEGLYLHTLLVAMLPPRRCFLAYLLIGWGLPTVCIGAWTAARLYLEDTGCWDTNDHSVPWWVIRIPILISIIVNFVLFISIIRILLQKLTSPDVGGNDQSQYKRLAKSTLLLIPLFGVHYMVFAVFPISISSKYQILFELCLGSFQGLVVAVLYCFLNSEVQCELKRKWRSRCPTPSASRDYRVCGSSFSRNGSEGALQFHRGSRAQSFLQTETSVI
Put plainly: Alpha screen cAMP assay, in vitro potency at human VPAC2 receptor. Format: cell-based. Particulars: cAMP generation; single result from two analyses in a single run, some values average of more than one experiment. A general note: Cyclic AMP is a second messenger, typically raised through Gs and lowered through Gi signalling.

In the next test the target is T2, human PAC1 (Homo sapiens, UniProt P41586).
T2 construct: expressed in transfected cells
T2 sequence (P41586 21-468): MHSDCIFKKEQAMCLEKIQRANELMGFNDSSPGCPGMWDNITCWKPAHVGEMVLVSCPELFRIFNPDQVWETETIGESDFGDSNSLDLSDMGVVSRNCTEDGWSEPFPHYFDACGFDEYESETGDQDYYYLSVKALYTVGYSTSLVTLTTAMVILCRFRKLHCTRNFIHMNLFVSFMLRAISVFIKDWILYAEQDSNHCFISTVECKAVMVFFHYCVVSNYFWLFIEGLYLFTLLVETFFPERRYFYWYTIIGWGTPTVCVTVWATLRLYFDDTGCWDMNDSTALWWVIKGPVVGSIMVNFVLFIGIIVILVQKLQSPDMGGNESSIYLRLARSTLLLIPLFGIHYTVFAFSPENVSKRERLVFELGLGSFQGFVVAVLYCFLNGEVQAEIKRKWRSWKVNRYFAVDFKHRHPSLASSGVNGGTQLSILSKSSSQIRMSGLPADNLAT
Kind of test: Filter binding assay, 125I-labeled PACAP-27 tracer, PAC1 membranes. Particulars: read-out: Human PAC1 Receptor Binding (IC50; nM).

Square brackets hold non-standard residues; d marks the D form. Peptide text beside a SMILES is read from it. * marks the point of attachment. Orn = NCCC[C@H](N)C(=O)O; Hexanoyl = CCCCCC(=O)*; Aib = CC(C)(N)C(=O)O

Procedure for human VPAC2: Alpha screen: Cells are washed in the culture flask once with PBS. Then, the cells are rinsed with enzyme free dissociation buffer. The dissociated cells are removed. The cells are then spun down and washed in stimulation buffer. For each data point, 50,000 cells suspended in stimulation buffer are used. To this buffer, Alpha screen acceptor beads are added along with the stimuli. This mixture is incubated for 60 minutes. Lysis buffer and Alpha screen donor beads are added and are incubated for 60 to 120 minutes. The Alpha screen signal (indicative of intracellular cAMP levels) is read in a suitable instrument (e.g. AlphaQuest from Perkin-Elmer). Steps including Alpha screen donor and acceptor beads are performed in reduced light. The EC50 for cAMP generation is calculated from the raw signal or is based on absolute cAMP levels as determined by a standard curve performed on each plate.
Results for each agonist are, at minimum, from two analyses performed in a single run. For some agonists, the results are the mean of more than one run. The tested peptide concentrations are: 10000, 1000, 100, 10, 3, 1, 0.1, 0.01, 0.003, 0.001, 0.0001 and 0.00001 nM.

As usually defined, the EC50 is the concentration needed to bring the measured effect to its halfway point. Read a high EC50 as lower potency in that assay. In general, IC50 refers to the concentration needed to halve the response being measured. Take `CCCCCC(=O)N[C@@H](Cc1c[nH]cn1)C(=O)N[C@@H](CO)C(=O)N[C@@H](CC(=O)O)C(=O)N[C@@H](C)C(=O)N[C@H](C(=O)N[C@@H](Cc1ccccc1)C(=O)N[C@H](C(=O)N[C@@H](CC(=O)O)C(=O)N[C@@H](CC(N)=O)C(=O)N[C@@H](Cc1ccc(O)cc1)C(=O)N[C@H](C(=O)N[C@@H](CCCN)C(=O)N[C@@H](CO)C(=O)N[C@@H](CCCNC(=N)N)C(=O)NC(C)(C)C(=O)N[C@@H](CCC(N)=O)C(=O)N[C@H](C(=O)N[C@@H](C)C(=O)N[C@@H](C)C(=O)NC(C)(C)C(=O)N[C@@H](CCCCN)C(=O)N[C@@H](Cc1ccc(O)cc1)C(=O)N[C@@H](CC(C)C)C(=O)N[C@@H](CCC(N)=O)C(=O)N[C@@H](CO)C(=O)N[C@H](C(=O)N[C@@H](CCCN)C(=O)N[C@@H](CC(N)=O)C(=O)N[C@@H](CCCN)C(=O)NCC(=O)NCC(=O)N1CCC[C@H]1C(=O)N[C@@H](CO)C(=O)N[C@@H](CO)C(=O)NCC(=O)N[C@@H](C)C(=O)N1CCC[C@H]1C(=O)N1CCC[C@H]1C(=O)N1CCC[C@H]1C(=O)N[C@@H](CO)C(=O)O)[C@@H](C)CC)C(C)C)[C@@H](C)O)[C@@H](C)O)C(C)C` [Agonist P391] (Hexanoyl-HSDAVFTDNYT[Orn]SR[Aib]QVAA[Aib]KYLQSI[Orn]N[Orn]GGPSSGAPPPS-OH; C-terminus assumed): on human VPAC2, a half-maximal response (EC50) required 0.48 nM. The IC50 at human PAC1 was > 25000 nM.
At human VPAC2, `CCCCCC(=O)N[C@@H](Cc1c[nH]cn1)C(=O)N[C@@H](CO)C(=O)N[C@@H](CC(=O)O)C(=O)N[C@@H](C)C(=O)N[C@H](C(=O)N[C@@H](Cc1ccccc1)C(=O)N[C@H](C(=O)N[C@@H](CC(=O)O)C(=O)N[C@@H](CC(N)=O)C(=O)N[C@@H](Cc1ccc(O)cc1)C(=O)N[C@H](C(=O)N[C@@H](CCCN)C(=O)N[C@@H](CC(C)C)C(=O)N[C@@H](CC(C)C)C(=O)N[C@@H](C)C(=O)N[C@@H](CCCCN)C(=O)N[C@@H](CC(C)C)C(=O)N[C@@H](C)C(=O)N[C@@H](CC(C)C)C(=O)N[C@@H](CCC(N)=O)C(=O)N[C@@H](CCCCN)C(=O)N[C@@H](Cc1ccc(O)cc1)C(=O)N[C@@H](CC(C)C)C(=O)N[C@@H](CCC(N)=O)C(=O)N[C@@H](CO)C(=O)N[C@H](C(=O)N[C@@H](CCCN)C(=O)N[C@@H](CC(N)=O)C(=O)N[C@@H](CCCN)C(=O)NCC(=O)NCC(=O)N1CCC[C@H]1C(=O)N[C@@H](CO)C(=O)N[C@@H](CO)C(=O)NCC(=O)N[C@@H](C)C(=O)N1CCC[C@H]1C(=O)N1CCC[C@H]1C(=O)N1CCC[C@H]1C(=O)N[C@@H](CO)C(=O)O)[C@@H](C)CC)[C@@H](C)O)[C@@H](C)O)C(C)C` [Agonist P371] (Hexanoyl-HSDAVFTDNYT[Orn]LLAKLALQKYLQSI[Orn]N[Orn]GGPSSGAPPPS-OH; C-terminus assumed) registered a half-maximal effective concentration (EC50) of 0.13 nM. The IC50 at human PAC1 is > 25000 nM.
